Assay results taken from US20090124690A1, “Generation of Combinatorial Synthetic Libraries and Screening for Novel Proadhesins and Nonadhesins” (priority 2000, published 2009).
pIC50: −log10 of the molar value.

Legend:
[1] = system: Staphylococcus epidermidis; assay: 96-well plate assay for activity against Staphylococcus epidermidis (adhesion, Syto 13); settings: compound tested at 0.5%
Colletotrichum acutatum = assay: Petri dish assay for activity against Colletotrichum acutatum (spore adhesion); settings: for Inhibition of adhesion of spores to polystyrene surfaces, Colletotrichum acutatum: compound tested at 0.5%
[2] = system: MRSA Staphylococcus aureus; assay: Anti-adhesion assay, MRSA Staphylococcus aureus; format: cell-based; settings: for ICMAX / ICMAX: level of maximal inhibition (ICxx): anti-adhesion, MRSA S. aureus, cell reads 'ICxx - concentration'
P. aerug. = assay: Library screening against P. aeruginosa (IC50); format: cell-based, Pseudomonas aeruginosa; settings: Table 3
Dengue 2 = assay: Anti-infection (adhesion) of viruses: Dengue 2, focus forming unit (FFU) reduction assay on LLCMK-2 cells; format: cell-based, Dengue virus (DENV-2 strain NG-2); settings: FIG. 6
Experimental: (§1) DENV-1 strain HI-1, DENV-2 strain NG-2, DENV-3 strain H-78, and DENV-4 strain H-42 were obtained from R. Tesh at the World Health Organization Arbovirus Reference Laboratory at the University of Texas at Galveston. Viruses were propagated in the African green monkey kidney epithelial cell line, LLCMK-2, a gift of K. Olsen at Colorado State University. LLCMK-2 cells were grown in DMEM with 10% (v/v) FBS, 2 mM Glutamax, 100 U/ml penicillin G, 100 μg/ml streptomycin and 0.25 μg/ml amphotericin B, at 37° C. with 5% (V/V) CO2.
LLCMK-2 target cells were seeded at a density of 1×10^5 cells in each well of a 6-well plate 24 h prior to infection. Approximately 200 FFU of virus were incubated with or without chemistries in serum-free DMEM for 1 h at rt. […] Virus foci were detected using supernatant from mouse anti-DENV hybridoma E60 (obtained from M. Diamond at Washington University) followed by horseradish peroxidase-conjugated goat anti-mouse immunoglobulin (Pierce, Rockford, Ill.) and developed using AEC chromogen substrate (Dako, Carpinteria, Calif.). Results were expressed as the average of at least two independent trials with three replicates in each trial.

Dengue virus = assay: Direct binding assay (DART TOF-MS), Dengue virus; settings: FIG. 6
Text: The virus particles were collected and fixed in 100% (USP) ethanol prior to DART TOF-MS analysis. The closed end of a borosilicate glass capillary tube was immersed in the virion solution and passed through the DART He plasma to obtain mass spectra of virion surface-bound chemistries. […] The same conditions were used to assess the binding of composition here to bacterial species. • 1. […] Viruses and Cells
as §1

SMILES	Inhibition of adhesion of spores to polystyrene surfaces, Colletotrichum acutatum (Colletotrichum acutatum)	ICMAX [2]	ICMAX: level of maximal inhibition (ICxx) [2]	other results
CNC(=O)C(Cc1ccc(OS(C)(=O)=O)cc1)NC(=O)COCC(=O)Nc1cccc(OS(C)(=O)=O)c1 (stereo not drawn) [Compound A02]	−12%			Inhibition of adhesion of cells to polystyrene surfaces, Staphylococcus epidermidis [1]: 22%
O=C(O)/C=C/c1ccc(OS(=O)(=O)O)cc1 [Zosteric Acid, reference compound]		90 µM	IC100	
CNC(=O)C(Cc1ccc(OS(=O)(=O)C(F)(F)F)cc1)NC(=O)COCC(=O)Nc1cccc(OS(=O)(=O)C(F)(F)F)c1 (stereo not drawn) [Compound B02]	−16%			
CCN(CCOC(=O)/C=C/c1ccc(O)cc1)Cc1cc(Cl)ccc1O [Compound I]		120 µM	IC70	IC50 (% wt/vol) P. aerug. (P. aerug.): 0.001 % wt/vol; pIC50 ([2]; Staphylococcus aureus, MRSA): 4.09; IC50 (% wt/vol) C. acut. (Colletotrichum acutatum; Table 3): 0.004 % wt/vol; Dengue infection when compound is bound (Dengue 2): inhibited; direct binding to Dengue virus (DART-MS) (Dengue virus): direct binding
